Where two headings read alike, the source gives them in different places. Some results are limits rather than exact numbers.

The IC50 is the concentration that gives 50% inhibition.

Assay type in all cases: biochemical
Experiment [1] addresses T1, PrkA kinase domain; PrkA(1-338) (Listeria monocytogenes, UniProt A0A0H3GI69).
T1 construct: gene LMRG_00967; cytosolic kinase domain, residues 1-338, pGEX-2T GST fusion from E. coli Rosetta BL21, GST cut off with thrombin
Nature of the experiment: Kinase-Glo ATP depletion assay. An excerpt:
Kinase-Glo ATP depletion assay on PrkA kinase domain; PrkA(1-338)
For orientation: In Kinase-Glo more light means more ATP remaining.

The target in experiment [2] is T2, Stk1 kinase domain (Staphylococcus aureus, UniProt A0A0H2XGG5).
T2 construct: gene pknB; cytosolic kinase domain, residues 1-348, pGEX-2T GST fusion from E. coli Rosetta BL21, GST cut off with thrombin; Mn2+ in place of Mg2+
Nature of the experiment: Kinase-Glo ATP depletion assay.

For experiment [3], the target named is T2, Stk1 kinase domain. Nature of the experiment: kinase inhibition assay (supplement).
The mark [4] stands for this setting: read-out: Relative IC50 (95% CI).

T1 sequence (A0A0H3GI69 entry or part of it): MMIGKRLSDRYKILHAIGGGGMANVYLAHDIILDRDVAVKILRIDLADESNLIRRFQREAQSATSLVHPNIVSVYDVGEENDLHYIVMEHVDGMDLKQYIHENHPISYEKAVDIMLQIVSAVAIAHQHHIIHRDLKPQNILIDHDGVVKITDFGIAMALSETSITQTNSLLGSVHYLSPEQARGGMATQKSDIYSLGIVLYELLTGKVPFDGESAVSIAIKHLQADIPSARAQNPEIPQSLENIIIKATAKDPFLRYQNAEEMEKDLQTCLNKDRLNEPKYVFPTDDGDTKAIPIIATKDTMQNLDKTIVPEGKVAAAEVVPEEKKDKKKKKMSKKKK
T2 sequence (A0A0H2XGG5 entry or part of it): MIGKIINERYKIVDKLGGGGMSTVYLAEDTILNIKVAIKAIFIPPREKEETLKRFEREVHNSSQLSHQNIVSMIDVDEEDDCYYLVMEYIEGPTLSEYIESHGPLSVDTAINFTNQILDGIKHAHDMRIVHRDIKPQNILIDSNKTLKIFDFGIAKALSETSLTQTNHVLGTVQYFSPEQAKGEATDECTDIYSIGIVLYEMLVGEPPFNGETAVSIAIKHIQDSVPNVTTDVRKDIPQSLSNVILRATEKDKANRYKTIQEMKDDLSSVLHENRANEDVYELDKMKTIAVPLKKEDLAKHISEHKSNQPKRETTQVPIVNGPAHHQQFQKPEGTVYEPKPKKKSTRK

Compound `CCn1c(-c2nonc2N)nc2c(C#CC(C)(C)O)ncc(OC[C@@H]3CCCN3)c21` [GSK614526A] had an IC50 in experiment [1] of 420 nM.
For `CCn1c(-c2nonc2N)nc2c(C#CC(C)(C)O)ncc(OC[C@H]3CCCNC3)c21` [GSK690693], the IC50 in experiment [2] is > 40000 nM; in experiment [1] (setting [4]) it was 840 nM.
For the compound `O=C1Nc2ccccc2C1=C1Nc2ccccc2C1=NO` [indirubin-3′-monoxime], in experiment [3], the “kinase inhibition assay (supplement)” value is recorded as “Stk1 can be biochemically inhibited by the kinase inhibitor indirubin-3′-monoxime”.
Turning to `CCn1c(-c2nonc2N)nc2c(C#CC(C)(C)O)nc(OCCN)cc21` [GSK902056A], the half-maximal inhibitory concentration (IC50) in experiment [1] (setting [4]) is 410 nM.
Consider `CCn1c(-c2nonc2N)nc2c(C#CC(C)(C)O)ncc(OCC3CCNCC3)c21` [GSK554170A], for which the IC50 in experiment [1] (setting [4]) was 450 nM.

Source of the values: PMC5641865, “A screen for kinase inhibitors identifies antimicrobial imidazopyridine aminofurazans as specific inhibitors of the Listeria monocytogenes PASTA kinase PrkA” (The Journal of Biological Chemistry, 2017).
